This passage reports GI50 and TGI results from PubChem BioAssay (NCI).

Some test systems named below: MDA-MB-435; SF-295 CNS; K-562 leukemia; OVCAR-3 ovarian; CAKI-1 renal; ACHN renal; HOP-62 NSCLC; PC-3 prostate; UACC-62 melanoma; SNB-75 CNS.
What all share (assay): growth of human tumour cells (NCI), 48 h

Molecules are shown by their SMILES. Values joined by “and” are separate entries in the source; they are usually repeats but may differ in a detail not shown here. Identical values can stand only once.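 Interpolation was linear, between the two tested concentrations surrounding the appropriate level; five concentrations were tested over 48 hours in 96-well plates. GI50 = concentration required for 50% inhibition of growth. The concentration for full growth arrest is given as TGI.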

`CCCCN=C(N)c1ccc(OCCSCCOc2ccc(C(N)=NCCCC)cc2)cc1`: the GI50 is 3.35 µM in the assay on MDA-MB-435; 2.73 µM with SF-295 CNS; 2.3 µM with K-562 leukemia; 4.97 µM in the assay with OVCAR-3 ovarian; > 100 µM in the assay on CAKI-1 renal; > 100 µM with ACHN renal. Also, the GI50 is 12.1 µM with HOP-62 NSCLC, 4.4 µM in the assay on PC-3 prostate, 6.12 µM in the assay with UACC-62 melanoma and 1.09 µM with SNB-75 CNS. Further, the TGI with MDA-MB-435 is > 100 µM; in the assay on SF-295 CNS, 53.8 µM; in the assay with K-562 leukemia, > 100 µM; with OVCAR-3 ovarian, > 100 µM; in the assay on CAKI-1 renal, > 100 µM; with ACHN renal, > 100 µM. For the same molecule, the TGI in the assay with HOP-62 NSCLC was > 100 µM; in the assay with PC-3 prostate, 98.6 µM; with UACC-62 melanoma, > 100 µM; in the assay on SNB-75 CNS it was 16.2 µM.
In the case of `O=C(c1cccc(O)c1O)c1cn(Cc2ccc(F)cc2)c2cccc(O)c12`, the GI50 is 5.23 µM in the assay with MDA-MB-435; 5.65 µM in the assay on SF-295 CNS; 3.56 µM in the assay on K-562 leukemia; 3.27 µM with OVCAR-3 ovarian; 4.13 µM with CAKI-1 renal; 3.2 µM with ACHN renal. For the same molecule, the GI50 is 5.41 µM in the assay on HOP-62 NSCLC, 6.92 µM in the assay on PC-3 prostate, 4.27 µM in the assay on UACC-62 melanoma and 2.49 µM in the assay with SNB-75 CNS. Also, the TGI with MDA-MB-435 was 36.3 µM; in the assay with SF-295 CNS it was > 46.5 µM; in the assay with K-562 leukemia, > 37.7 µM; with OVCAR-3 ovarian, 18.1 µM; in the assay on CAKI-1 renal it was 18.5 µM; in the assay on ACHN renal it was 14.9 µM. Further, the TGI in the assay on HOP-62 NSCLC is 19.5 µM; in the assay on PC-3 prostate it was 26.7 µM; in the assay on UACC-62 melanoma it was 14.6 µM; in the assay on SNB-75 CNS, 12 µM.
Consider `CCN1C(=O)CNc2ncc(-c3ccc(-c4ncn[nH]4)nc3C)nc21`, for which the GI50 was 0.162 µM with MDA-MB-435; 0.105 µM with SF-295 CNS; 0.358 µM in the assay on K-562 leukemia; 0.189 µM with OVCAR-3 ovarian; 0.0441 µM in the assay on CAKI-1 renal; 0.14 µM in the assay on ACHN renal. The GI50 in the assay on HOP-62 NSCLC is 0.14 µM; in the assay with PC-3 prostate, 0.0706 µM; with UACC-62 melanoma, 0.0777 µM; in the assay on SNB-75 CNS, 0.0369 µM. For the same molecule, the TGI in the assay with MDA-MB-435 is 1.63 µM; in the assay on SF-295 CNS, 0.679 µM; with K-562 leukemia, > 100 µM; in the assay on OVCAR-3 ovarian, 4.49 µM; in the assay on CAKI-1 renal it was 0.576 µM; in the assay on ACHN renal it was 2.16 µM. For the same molecule, the TGI in the assay with HOP-62 NSCLC worked out at 2.46 µM; with PC-3 prostate, 1.97 µM; in the assay with UACC-62 melanoma it was 0.587 µM; in the assay with SNB-75 CNS, 0.321 µM.
For `COc1cc(NC(=O)c2cc(O)c(CC=C(C)C)c(O)c2)cc2c1O[C@]1(C)CC[C@@H](O)C(C)(C)[C@H]1C2`, the GI50 was 3.73 µM in the assay with MDA-MB-435; 1.25 µM with SF-295 CNS; 3.58 µM with K-562 leukemia; 5.93 µM in the assay on OVCAR-3 ovarian; 3.17 µM in the assay on CAKI-1 renal; 5.38 µM in the assay with ACHN renal. In addition, the GI50 with HOP-62 NSCLC was 5.2 µM; in the assay with PC-3 prostate, 3.03 µM; in the assay on UACC-62 melanoma, 2.41 µM; in the assay on SNB-75 CNS, 0.772 µM. The TGI in the assay with MDA-MB-435 is 23.7 µM; in the assay on SF-295 CNS it was 3.85 µM; in the assay on K-562 leukemia, 34.1 µM; in the assay on OVCAR-3 ovarian it was 83.5 µM; in the assay on CAKI-1 renal, > 100 µM; in the assay on ACHN renal, 48.7 µM. Moreover, the TGI with HOP-62 NSCLC was 30.9 µM; in the assay on PC-3 prostate it was 35.1 µM; in the assay on UACC-62 melanoma it was 8.27 µM; in the assay with SNB-75 CNS, 25.9 µM.
`COc1ccc(OC)c(/C=C/C(=O)N/N=C/c2ccc(Cl)cc2)c1`: the GI50 with MDA-MB-435 was 0.0263 µM; in the assay with SF-295 CNS it was 0.0701 µM; in the assay on K-562 leukemia it was 0.042 µM; with OVCAR-3 ovarian, 0.0285 µM; in the assay on CAKI-1 renal, 0.0786 µM; with ACHN renal, 1.61 µM. Moreover, the GI50 with HOP-62 NSCLC was 0.102 µM; with PC-3 prostate, 0.105 µM; with UACC-62 melanoma it was 0.058 µM; in the assay with SNB-75 CNS, 0.0537 µM. Also, the TGI is 0.106 µM in the assay on MDA-MB-435; > 25.4 µM in the assay on SF-295 CNS; > 100 µM in the assay on K-562 leukemia; 0.0875 µM in the assay with OVCAR-3 ovarian; > 100 µM in the assay with CAKI-1 renal; > 100 µM with ACHN renal. Besides, the TGI with HOP-62 NSCLC was > 70.9 µM; in the assay on PC-3 prostate it was > 100 µM; with UACC-62 melanoma, > 100 µM; in the assay on SNB-75 CNS, 0.674 µM.
`CCOC(=O)Sc1ncnc2nc[nH]c12`: the GI50 with MDA-MB-435 is 1.47 µM; with SF-295 CNS, 2.43 µM; with K-562 leukemia, 0.312 µM; in the assay with OVCAR-3 ovarian, 0.474 µM; with CAKI-1 renal it was 0.579 µM; with ACHN renal it was 4.65 µM. The GI50 is 0.808 µM with HOP-62 NSCLC, 4.07 µM in the assay with PC-3 prostate, 1.37 µM with UACC-62 melanoma and 0.747 µM in the assay with SNB-75 CNS. The TGI with MDA-MB-435 is > 100 µM; in the assay on SF-295 CNS, > 100 µM; in the assay on K-562 leukemia, > 100 µM; in the assay on OVCAR-3 ovarian, > 100 µM; in the assay on CAKI-1 renal, 6.31 µM; in the assay with ACHN renal it was > 100 µM. The TGI in the assay on HOP-62 NSCLC, with PC-3 prostate, in the assay with UACC-62 melanoma and in the assay on SNB-75 CNS was > 100 µM each time.
As for `CCc1[nH]c(=O)nc(N)c1-c1ccc(N2CCCCC2)c([N+](=O)[O-])c1`, the TGI in the assay on MDA-MB-435, with SF-295 CNS, in the assay on K-562 leukemia, in the assay with OVCAR-3 ovarian, in the assay with CAKI-1 renal and with ACHN renal was > 100 µM in each case. Also, the TGI in the assay on HOP-62 NSCLC, in the assay on PC-3 prostate, in the assay with UACC-62 melanoma and in the assay with SNB-75 CNS was > 100 µM each time.
Regarding `CCC1(O)C(=O)OCc2c1cc1n(c2=O)Cc2cc3ccc(C=O)cc3nc2-1` (stereo not drawn), the GI50 with MDA-MB-435 is 5.9 µM; in the assay on SF-295 CNS, 2.07 µM; with K-562 leukemia, 1.39 µM; in the assay on OVCAR-3 ovarian, 5.05 µM; in the assay with CAKI-1 renal it was 1.99 µM; with ACHN renal it was 1.73 µM. In addition, the GI50 in the assay on HOP-62 NSCLC is 0.476 µM; in the assay with UACC-62 melanoma it was 0.77 µM. Besides, the TGI in the assay with MDA-MB-435 was 31.2 µM and 35.7 µM; in the assay with SF-295 CNS it was 50 µM and 52.6 µM; in the assay on K-562 leukemia it was 50 µM and 66 µM; in the assay with OVCAR-3 ovarian, 30.6 µM and 23.4 µM; in the assay on CAKI-1 renal, 19.2 µM and 8.81 µM; with ACHN renal, 38.9 µM and 5.51 µM. Moreover, the TGI is 14.9 µM and 1.56 µM in the assay with HOP-62 NSCLC; 50 µM and > 100 µM in the assay on PC-3 prostate; 3.44 µM and 3.71 µM with UACC-62 melanoma; 30.8 µM and 14.5 µM in the assay with SNB-75 CNS.
